The results in this text go back to US7592364B2, “Substituted gamma lactams as therapeutic agents” (Allergan, Inc., priority 2006, dated 2009).

For one assay, the target named is T1, hEP4/Gqs5 (Homo sapiens, UniProt P35408).
T1 construct: expressed in transfected cells; host or cells: HEK-293(EBNA)
As to the kind of experiment: EP4 FLIPR calcium signal study. It is filed as cell-based. The conditions noted are these: HEK-293(EBNA) cells expressing hEP4/Gqs5; unit inferred. How it is done:
(§1) Methods for FLIPR™ Studies
(§2) HEK-293(EBNA) cells, stably expressing one type or subtype of recombinant human prostaglandin receptors (prostaglandin receptors expressed: hDP/Gqs5; hEP1; hEP2/Gqs5; hEP3A/Gqi5; hEP4/Gqs5; hFP; hIP; hTP), were cultured in 100 mm culture dishes in high-glucose DMEM medium containing 10% fetal bovine serum, 2 mM 1-glutamine, 250 μg/ml geneticin (G418) and 200 μg/ml hygromycin B as selection markers, and 100 units/ml penicillin G, 100 μg/ml streptomycin and 0.25 μg/ml amphotericin B.
(§3) (b) Calcium Signal Studies on The FLIPR™
(§4) Cells were seeded at a density of 5×10^4 cells per well in Biocoat® Poly-D-lysine-coated black-wall, clear-bottom 96-well plates (Becton-Dickinson) and allowed to attach overnight in an incubator at 37° C. Cells were then washed two times with HBSS-HEPES buffer (Hanks Balanced Salt Solution without bicarbonate and phenol red, 20 mM HEPES, pH 7.4) using a Denley Cellwash plate washer (Labsystems). […]
(§5) Cells were excited with an Argon laser at 488 nm, and emission was measured through a 510-570 nm bandwidth emission filter (FLIPR™, Molecular Devices, Sunnyvale, Calif.). […] The peak increase in fluorescence intensity was recorded for each well. […] The peak fluorescence change in each drug-containing well was then expressed relative to the controls. […]

The target of a further assay is T2, hDP/Gqs5 (Homo sapiens, UniProt Q13258).
T2 construct: expressed in transfected cells; host or cells: HEK-293(EBNA)
T2 sequence (Q13258 1-359): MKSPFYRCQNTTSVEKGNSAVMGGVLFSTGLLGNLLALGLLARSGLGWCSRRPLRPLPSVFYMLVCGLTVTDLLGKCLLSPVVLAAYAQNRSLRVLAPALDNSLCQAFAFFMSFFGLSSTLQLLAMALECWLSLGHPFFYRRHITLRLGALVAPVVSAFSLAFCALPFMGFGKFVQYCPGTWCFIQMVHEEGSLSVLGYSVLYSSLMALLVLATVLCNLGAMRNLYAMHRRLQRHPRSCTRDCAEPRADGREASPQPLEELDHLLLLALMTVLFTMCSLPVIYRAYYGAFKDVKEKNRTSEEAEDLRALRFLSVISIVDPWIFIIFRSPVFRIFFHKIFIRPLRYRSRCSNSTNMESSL
As to the kind of experiment: hDP FLIPR calcium signal study. Format: cell-based. Particulars: HEK-293(EBNA) cells expressing hDP/Gqs5; read-out: Other Receptors (EC50 in nM) hDP. How it is done:
as §1, §2, §3
(§6) Cells were seeded at a density of 5×10^4 cells per well in Biocoat® Poly-D-lysine-coated black-wall, clear-bottom 96-well plates (Becton-Dickinson) and allowed to attach overnight in an incubator at 37° C. Cells were then washed two times with HBSS-HEPES buffer (Hanks Balanced Salt Solution without bicarbonate and phenol red, 20 mM HEPES, pH 7.4) using a Denley Cellwash plate washer (Labsystems). After 45 minutes of dye-loading in the dark, using the calcium-sensitive dye Fluo-4 […] at a final concentration of 2 μM, plates were washed four times with HBSS-HEPES buffer to remove excess dye leaving 100 μl in each well. Plates were re-equilibrated to 37° C. for a few minutes.
(§7) Cells were excited with an Argon laser at 488 nm, and emission was measured through a 510-570 nm bandwidth emission filter (FLIPR™, Molecular Devices, Sunnyvale, Calif.). Drug solution was added in a 50 μl volume to each well to give the desired final concentration. The peak increase in fluorescence intensity was recorded for each well. On each plate, four wells each served as negative (HBSS-HEPES buffer) and positive controls (standard agonists: BW245C (hDP); PGE2 (hEP1; hEP2/Gqs5; hEP3A/Gqi5; hEP4/Gqs5); PGF2α (hFP); carbacyclin (hIP); U-46619 (hTP), depending on receptor). The peak fluorescence change in each drug-containing well was then expressed relative to the controls.
(§8) Compounds were tested in a high-throughput (HTS) or concentration-response (CoRe) format. In the HTS format, forty-four compounds per plate were examined in duplicates at a concentration of 10^−5 M. To generate concentration-response curves, four compounds per plate were tested in duplicates in a concentration range between 10^−5 and 10^−11 M. The duplicate values were averaged. In either, HTS or CoRe format each compound was tested on at least 3 separate plates using cells from different passages to give an n>3.

The target in the next assay is T3, hEP3A/Gqi5 (Homo sapiens, UniProt P43115).
T3 construct: expressed in transfected cells; host or cells: HEK-293(EBNA)
T3 sequence (P43115 1-390): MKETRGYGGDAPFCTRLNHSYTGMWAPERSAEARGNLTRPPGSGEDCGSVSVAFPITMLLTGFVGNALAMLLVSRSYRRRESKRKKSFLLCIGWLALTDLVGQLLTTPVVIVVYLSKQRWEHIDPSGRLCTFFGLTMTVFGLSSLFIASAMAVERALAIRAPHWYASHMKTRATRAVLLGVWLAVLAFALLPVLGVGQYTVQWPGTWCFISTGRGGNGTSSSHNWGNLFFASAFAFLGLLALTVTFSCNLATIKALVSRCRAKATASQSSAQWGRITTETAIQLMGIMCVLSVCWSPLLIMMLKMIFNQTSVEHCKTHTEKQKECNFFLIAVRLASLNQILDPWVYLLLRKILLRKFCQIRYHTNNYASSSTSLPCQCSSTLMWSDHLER
As to the kind of experiment: hEP3A FLIPR calcium signal study. It is filed as cell-based. Particulars: HEK-293(EBNA) cells expressing hEP3A/Gqi5; read-out: Other Receptors (EC50 in nM) hEP3A. How it is done:
as §1, §2, §3, §4, §5

In a further assay the target is T4, hEP2/Gqs5 (Homo sapiens, UniProt P43116).
T4 construct: expressed in transfected cells; host or cells: HEK-293(EBNA)
T4 sequence (P43116 whole entry): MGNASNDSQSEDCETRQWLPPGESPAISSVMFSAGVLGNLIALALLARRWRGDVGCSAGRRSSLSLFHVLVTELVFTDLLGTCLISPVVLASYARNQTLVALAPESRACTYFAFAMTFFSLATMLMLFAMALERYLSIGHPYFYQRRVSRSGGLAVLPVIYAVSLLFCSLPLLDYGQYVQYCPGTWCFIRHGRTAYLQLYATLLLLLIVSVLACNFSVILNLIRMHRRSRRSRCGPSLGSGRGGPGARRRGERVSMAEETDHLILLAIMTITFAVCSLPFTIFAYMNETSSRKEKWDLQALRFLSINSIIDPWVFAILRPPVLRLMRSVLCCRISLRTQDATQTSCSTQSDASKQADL
As to the kind of experiment: EP2 FLIPR calcium signal study. Format: cell-based. Particulars: HEK-293(EBNA) cells expressing hEP2/Gqs5; unit inferred. The protocol: as §1, §2, §3, §6, §7, §8

A further assay addresses T5, EP4 receptors (Homo sapiens, UniProt P35408).
T5 construct: expressed in transfected cells; host or cells: HEK-293
As to the kind of experiment: EP4 radioligand binding (Ki) vs [3H]PGE2. Particulars: unit inferred. The protocol: (§9) Cells Stably Expressing EP1, EP2, EP4 and FP Receptors
(§10) HEK-293 cells stably expressing the human or feline FP receptor, or EP1, EP2, or EP4 receptors were washed with TME buffer, scraped from the bottom of the flasks, and homogenized for 30 sec using a Brinkman PT 10/35 polytron. TME buffer was added to achieve a final 40 ml volume in the centrifuge tubes (the composition of TME is 100 mM TRIS base, 20 mM MgCl2, […]; 10N HCl is added to achieve a pH of 7.4).
(§11) The cell homogenate was centrifuged at 19000 r.p.m. for 20 min at 4° C. using a Beckman Ti-60 rotor. The resultant pellet was resuspended in TME buffer to give a final 1 mg/ml protein concentration, as determined by Biorad assay. Radioligand binding competition assays vs. [^3H-]17-phenyl PGF2α (5 nM) were performed in a […] volume for 60 min. Binding reactions were started by adding plasma membrane fraction. The reaction was terminated by the addition of 4 ml ice-cold TRIS-HCl buffer and rapid filtration through glass fiber GF/B filters using a Brandel cell harvester. The filters were washed 3 times with ice-cold buffer and oven dried for one hour.
(§12) [^3H-] PGE2 (specific activity 180 Ci mmol) was used as the radioligand for EP receptors. [^3H] 17-phenyl PGF2, was employed for FP receptor binding studies. Binding studies employing EP1, EP2, EP4 and FP receptors were performed in duplicate in at least three separate experiments. A 200 μl assay volume was used. Incubations were for 60 min at 25° C. and were terminated by the addition of 4 ml of ice-cold 50 mM TRIS-HCl, followed by rapid filtration through Whatman GF/B filters and three additional 4 ml washes in a cell harvester (Brandel). Competition studies were performed using a final concentration of 5 nM [^3H]-PGE2, or 5 nM [^3H] 17-phenyl PGF2, and non-specific binding determined with 10^−5M of unlabeled PGE2, or 17-phenyl PGF2α, according to receptor subtype studied.

The target in assay [1] is T6, EP2 (Homo sapiens, UniProt P43116). As to the kind of experiment: EP2 cAMP assay. It is filed as cell-based. The conditions noted are these: unit inferred. A general note: Changes in cAMP serve as a functional read-out for many G protein-coupled receptors.
T6 sequence (P43116 whole entry): as above
The target of assay [2] is T6, EP2. As to the kind of experiment: EP2 competition binding (Ki) vs [3H]PGE2. Also on record: expressed in transfected cells; host or cells: HEK 293. Particulars: HEK 293 cells stably expressing human EP2, [3H]PGE2; unit inferred. How it is done:
Competition binding experiments were performed in a medium containing Hank's balanced salt solution, Hepes 20 mM, pH 7.3, membranes (˜60 μg protein) or 2×10^5 cells from HEK 293 cells stably expressing human EP2 receptors, [^3H]PGE2 (10 nM) and various concentrations of test compounds in a total volume of 300 μl. Reaction mixtures were incubated at 23° C. for 60 min, and were filtered over Whatman GF/B filters under vacuum. Filters were washed three times with 5 ml ice-cold buffer containing 50 mM Tris/HCl (pH 7.3). Non-specific binding was estimated in the presence of excess unlabeled PGE2 (10 μM). Binding data fitted to the binding model for a single class of binding sites, using nonlinear regression analysis. IC50 values thus obtained were converted to Ki using the equation of Ki=(IC50/(1+[L]/KD) where [L] represents PGE2 concentration (10 nM) and KD the dissociation constant for [^3H]PGE2 at human EP2 receptors (40 nM).
as §9, §10, §11, §12

T5 sequence (P35408 whole entry): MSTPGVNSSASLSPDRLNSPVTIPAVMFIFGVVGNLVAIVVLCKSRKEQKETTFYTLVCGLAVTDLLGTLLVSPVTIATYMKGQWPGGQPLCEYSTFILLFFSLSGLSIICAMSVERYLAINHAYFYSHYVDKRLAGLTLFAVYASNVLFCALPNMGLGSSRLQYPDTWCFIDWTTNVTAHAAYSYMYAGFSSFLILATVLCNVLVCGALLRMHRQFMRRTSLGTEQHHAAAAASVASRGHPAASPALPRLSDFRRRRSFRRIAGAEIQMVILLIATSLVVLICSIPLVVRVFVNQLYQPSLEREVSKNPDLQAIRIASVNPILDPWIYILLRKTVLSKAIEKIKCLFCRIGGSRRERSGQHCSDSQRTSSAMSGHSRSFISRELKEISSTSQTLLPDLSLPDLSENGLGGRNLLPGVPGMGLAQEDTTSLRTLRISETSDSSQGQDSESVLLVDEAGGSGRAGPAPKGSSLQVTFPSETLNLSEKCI
T1 sequence (P35408 whole entry): as above

Turning to `CCCCCCC(O)c1ccc(N2C(=O)CC[C@@H]2CCCc2ccc(C(=O)O)s2)cc1` (mixture of isomers) [Example 36, 5-(3-{(S)-1-[4-(1-Hydroxy-heptyl)-phenyl]-5-oxo-pyrrolidin-2-yl}-propyl)-thiophene-2-carboxylic acid], the concentration giving a half-maximal response (EC50) (as a rule, the concentration at which the effect is half-maximal) at hEP4/Gqs5 is over 10 µM; on hDP/Gqs5, 105 nM; at hEP3A/Gqi5, 47 nM; on hEP2/Gqs5, 0.03 µM.
Turning to `CCCCCC(O)c1ccc(N2C(=O)CC[C@@H]2COCc2cccc(C(=O)O)c2)cc1` (mixture of isomers) [Example 11, 3-{(R)-1-[4-(1-Hydroxy-hexyl)-phenyl]-5-oxo-pyrrolidin-2-ylmethoxymethyl}-benzoic acid], the Ki (usually a dissociation constant, usually derived from enzyme kinetics or from competition with a known ligand) on EP4 receptors was over 10 µM. For the same compound, the EC50 at hEP2/Gqs5 was over 10 µM; on EP2 [1], 0.517 µM.
Turning to `CCCCCC(O)c1ccc(N2C(=O)CC[C@@H]2CCCc2ccc(C(=O)O)s2)cc1` (mixture of isomers) [Example 17, 5-(3-{(S)-1-[4-(1-Hydroxy-hexyl)-phenyl]-5-oxo-pyrrolidin-2-yl}-propyl)-thiophene-2-carboxylic acid], the EC50 was 1230 nM on hDP/Gqs5, 155 nM on hEP3A/Gqi5, 0.005 µM at hEP2/Gqs5 and 0.00055 µM at EP2 [1]. Further, the values for the Ki at EP2 [2] and on EP4 receptors were 0.023 µM and over 10 µM, respectively.
Turning to `CCC(O)c1ccc(N2C(=O)CC[C@@H]2COCc2ccc(C(=O)O)s2)cc1` (mixture of isomers) [Example 15, 5-{(R)-1-[4-(1-Hydroxy-propyl)-phenyl]-5-oxo-pyrrolidin-2-ylmethoxymethyl}-thiophene-2-carboxylic acid], the EC50 on hEP4/Gqs5 is over 10 µM; on hDP/Gqs5, 7560 nM; at hEP2/Gqs5, 1.81 µM; on EP2 [1], 0.312 µM. In addition, the Ki at EP2 [2] is 5.73 µM; on EP4 receptors it was over 10 µM.
Take `CCCCC[C@@H](O)c1ccc(N2C(=O)CC[C@@H]2/C=C/Cc2ccc(C(=O)O)s2)cc1` (racemic) [Example 16, 5-((E and Z)-3-{(R)-1-[4-(1-Hydroxy-hexyl)-phenyl]-5-oxo-pyrrolidin-2-yl}-allyl)-thiophene-2-carboxylic acid]: the inhibition constant (Ki) on EP2 [2] was 1.38 µM; on EP4 receptors it was over 10 µM. Further, the concentration giving a half-maximal response (EC50) at hEP2/Gqs5 was found to be 0.226 µM; on EP2 [1], 0.015 µM.
For `CCCC(O)c1ccc(N2C(=O)CC[C@@H]2COCc2ccc(C(=O)O)s2)cc1` (mixture of isomers) [Example 14, 5-{(R)-1-[4-(1-Hydroxy-butyl)-phenyl]-5-oxo-pyrrolidin-2-ylmethoxymethyl}-thiophene-2-carboxylic acid], the results for the Ki on EP2 [2] and at EP4 receptors were 1.64 µM and over 10 µM, respectively. The half-maximal effective concentration (EC50) on hEP2/Gqs5 amounted to 0.426 µM; on EP2 [1], 0.027 µM.
For the compound `CCCCCCC(O)c1ccc(N2C(=O)CC[C@@H]2COCc2ccc(C(=O)O)s2)cc1` (mixture of isomers) [Example 13, 5-{(R)-1-[4-(1-Hydroxy-heptyl)-phenyl]-5-oxo-pyrrolidin-2-ylmethoxymethyl}-thiophene-2-carboxylic acid], the EC50 amounted to 5760 nM on hDP/Gqs5, 0.02 µM at hEP2/Gqs5 and 0.0015 µM on EP2 [1]. Also, the Ki was 0.19 µM at EP2 [2] and over 10 µM at EP4 receptors.
With `CCCCCC(O)c1ccc(N2C(=O)CC[C@@H]2COc2ccc(C(=O)O)cc2)cc1` (mixture of isomers) [Example 43, 4-{(R)-1-[4-(1-Hydroxy-hexyl)-phenyl]-5-oxo-pyrrolidin-2-ylmethoxy}-benzoic acid], the values for the Ki on EP2 [2] and at EP4 receptors were 22.7 µM and 8.75 µM, respectively. The concentration giving a half-maximal response (EC50) at hEP2/Gqs5 is 7.28 µM.
As to `CCCCC(O)c1ccc(N2C(=O)CC[C@@H]2COCc2ccc(C(=O)O)s2)cc1` (mixture of isomers) [Example 12, 5-{(R)-1-[4-(1-Hydroxy-pentyl)-phenyl]-5-oxo-pyrrolidin-2-ylmethoxymethyl}-thiophene-2-carboxylic acid], the inhibition constant Ki on EP2 [2] is 0.387 µM; at EP4 receptors, over 10 µM. Also, the EC50 at hEP2/Gqs5 turned out to be 0.212 µM; at EP2 [1], 0.008 µM.
